# Measurements as given in ChEMBL document CHEMBL6120935, “Multifunctional Molecular Hybrids Photoreleasing Nitric Oxide: Advantages, Pitfalls, and Opportunities” (J Med Chem, 2024).
# Assay: n-Octanol/PBS partition coefficient, logP of compound at pH 7.4 incubated for 4 hrs under shaking condition by UV spectrophotometric analysis
# Format: physicochemical
row,SMILES,logD at 4 h
1,O=C(CCCCCCCC[P+](c1ccccc1)(c1ccccc1)c1ccccc1)NCCCNc1ccc([N+](=O)[O-])c(C(F)(F)F)c1,2.78
2,O=C(CCCCC[P+](c1ccccc1)(c1ccccc1)c1ccccc1)NCCCNc1ccc([N+](=O)[O-])c(C(F)(F)F)c1,2.39
3,CC(=O)NCCCNc1ccc([N+](=O)[O-])c(C(F)(F)F)c1,2.03
4,O=C(CCCCCCCCC[P+](c1ccccc1)(c1ccccc1)c1ccccc1)NCCCNc1ccc([N+](=O)[O-])c(C(F)(F)F)c1,3.24
5,O=C(CC[P+](c1ccccc1)(c1ccccc1)c1ccccc1)NCCCNc1ccc([N+](=O)[O-])c(C(F)(F)F)c1,1.99
